Assay results: article PMC3949714 (PLoS ONE, 2014)
Read-outs that look alike come from different tables or passages of the source. Where no end group is shown, it is not given here.

How the values were obtained:
[1] = Biotransformation in homogenised inflamed tissue at pH 5.5 (LC/MS, mean residence time); conditions: for MRT: 120 min, AUMC/AUC of LC/MS peak intensity
[2] = molecular target: T1, mu-opioid receptors (MOR) (Mus musculus, UniProt P42866); experiment: cell-based; assay type: cell-based, murine
T1 construct: FLAG; expressed in transfected cells
T1 sequence (P42866 whole entry): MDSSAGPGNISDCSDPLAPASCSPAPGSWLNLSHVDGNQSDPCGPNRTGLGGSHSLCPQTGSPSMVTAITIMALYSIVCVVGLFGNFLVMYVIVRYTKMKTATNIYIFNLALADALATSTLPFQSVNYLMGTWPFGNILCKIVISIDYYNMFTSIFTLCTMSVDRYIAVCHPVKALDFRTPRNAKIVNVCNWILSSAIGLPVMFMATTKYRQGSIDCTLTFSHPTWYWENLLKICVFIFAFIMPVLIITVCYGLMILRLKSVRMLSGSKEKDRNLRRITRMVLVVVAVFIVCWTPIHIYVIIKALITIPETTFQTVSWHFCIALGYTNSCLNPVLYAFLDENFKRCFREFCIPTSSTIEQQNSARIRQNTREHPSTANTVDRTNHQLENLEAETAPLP

[3] = RP-HPLC retention time (read by the paper as polarity); assay type: physicochemical; conditions: water/acetonitrile gradient with 0.1% formic acid, MS TIC detection
Procedure: An Agilent binary HPLC composing of an Agilent 1100 LC pump, an Agilent 1100 well plate auto-sampler (Agilent Technologies, Santa Clara, CA, USA) and a Jupiter 5 μ (C4, 300 A, 150×2.00 mm, 5 μ) RP HPLC column (Phenomenex, Torrance, CA, USA) were used for separation. The mobile phase flow rate was 200 µl/min and the volume of injection was 20 µL. The separations were performed using a binary solvent gradient; water (Milli-Q; Millipore Corporation, Bedford, MA) which contained 0.1% v/v formic acid was used as the solvent A and acetonitrile (Merck KGaA, Darmstadt, Germany) which contained 0.1% v/v formic acid (Nuplex industries Pty Ltd. (NSW, Australia) was used as the solvent B. The chromatographic separation was achieved using the gradient shown in Table 1.
An API 3000 tandem mass spectrometer equipped with a turbo ion spray was used as the detector. Detection was performed in total ion current (TIC) mode (MS1/Q1), in positive mode, within the range 200–3000 amu. The data were acquired and processed by Analyst 1.5 software (Applied Biosystems, Foster city, CA, USA). Mass spectra were obtained using: declustering potential (DF) of 16 V, focusing potential (FP) of 120 V, Entrance potential (EP) of 10 V, and Ion spray voltage (IS) of 5000 V. Structure identity of fragments was performed using the respective mass/charge (m/z) values of each peptide metabolite. Direct flow injections were carried out using Model 11 plus Harvard Syringe pump (Harvard Apparatus Inc, Holliston, MA, USA).

[4] = molecular target: T2, delta-opioid receptors (DOR); assay type: cell-based; conditions: read-out: IC50 for the inhibition of forskolin induced cAMP in HEK-DOP cells
T2 construct: expressed in transfected cells

[5] = incubation of BE 1-17 (115 µM) in rat inflamed tissue homogenate, MES pH 5.5, 37°C
[6] = incubation of BE 1-31 (115 µM) in rat inflamed tissue homogenate, MES pH 5.5, 37°C
[7] = incubation of BE 1-17, Jupiter C4 column
[8] = incubation of BE 1-31, Jupiter C4 300 A column, 200 µl/min
[9] = incubation of BE 1-13 (115 µM) in rat inflamed tissue homogenate, MES pH 5.5, 37°C
[10] = rat inflamed tissue homogenate, MES pH 5.5, 37°C, 115 µM peptide, LC/MS
[11] = incubation of BE 1-13, Jupiter C4 column

Row | Sequence | MRT [1, 5] | MRT [1, 6] | Agonist character at MOR (extent of cAMP inhibition) [2] | RT [3, 7] [min] | RT [3, 8] [min] | MRT ([1]; incubation of BE 1-11 (115 µM) in rat inflamed tissue homogenate, MES pH 5.5, 37°C) | MRT [1, 9] | Incubation period after which the peptide was undetectable [1, 10] [min] | Effect of naloxone pre-treatment on cAMP inhibition through MOR [2] | Rt ([3]; incubation of BE 1-11, Jupiter C4 column) [min] | Rt [3, 11] [min] | IC50 [4] [nM] | Time present as metabolite within inflamed tissue homogenates ([1]; formed during incubation of BE 1–31, pH 5.5, 37°C) | Time for which the peptide was detected in inflamed tissue homogenates [1, 10] [min] | Rt ([3]; incubation of BE 1-13, Jupiter C4 column, listed as BE 1-13) [min] | RT ([3]; incubation of BE 1-17, Jupiter C4 column, listed as BE 1-13) [min] | RT ([3]; incubation of BE 1-17, Jupiter C4 column, listed as BE 1-17) [min] | IC50 ([2]; read-out: IC50 for the inhibition of forskolin induced cAMP in HEK-MOP cells) [nM] | Peak intensity observed (remaining) at 15 min ([1]; rat inflamed paw tissue homogenate (1 g/10 ml MES buffer) pH 5.5, 37°C, 115 µM peptide, LC/MS) [%] | IC50 [2] [nM]
1 | YGGFMTSEK [BE 1–9] | 28 | 11.4 | partial agonist | 18.13 | 20.2 | – | – | – | – | – | – | – | – | – | – | – | – | – | – | –
2 | YGGFMTSEKSQ [BE 1–11] | 17.2 | 57.8 | – | 17.58 | 19.96 | 11 | 10.5 | 30 | inhibited by naloxone | 17.4 | 17.4 | 18 | – | – | – | – | – | – | – | –
3 | YGGFMTSEKSQTP [BE 1–13] | 21.7 | 44 | – | 18.6 | 20.9 | – | 8.3 | – | inhibited by naloxone | – | 18.4 | 59 | over 1 hour | 30 | 18.5 | 18.78 | – | – | – | –
4 | YGGFMTSEKSQTPLVTL [BE 1–17] | 5.6 | 25 | – | 24.5 | 24.5 | – | – | 15 | inhibited by naloxone | – | – | 25 | – | – | – | – | 24.3 | – | – | –
5 | YGGFMTSEKSQTPLVTLFKN [BE 1–20] | – | 34.2 | – | – | 25.2 | – | – | – | inhibited by naloxone | – | – | 55 | – | – | – | – | – | 5 | – | –
6 | YGGFMTSEKSQTPLVTLFKNAIIKNVHKKGQ [BE 1–31, Beta-endorphin] | – | 2.9 | – | – | 25.8 | – | – | – | inhibited by naloxone | – | – | 57 | – | – | – | – | – | – | 7.5 | 24
